What was measured:
Assay in all cases: Greenhouse herbicidal activity, post-emergence treatment
Details in all cases: 0.5 or 0.25 kg/ha of a.s.
[1] = system: Chenopodium album; assay type: in vivo, Chenopodium album (lambsquarters, goosefoot)
Excerpt: (§1) The culture containers used were plastic pots containing loamy sand with approximately 3.0% of humus as the substrate. The seeds of the test plants were sown separately for each species.
(§2) For the post-emergence treatment, the test plants were first grown to a height of 3 to 15 cm, depending on the plant habit, and only then treated with the active compounds which had been emulsified or suspended in water. The test plants were for this purpose either sown directly and grown in the same containers, or they were first grown separately as seedlings and transplanted into the test containers a few days prior to treatment. The application rate for the post-emergence treatment was 0.5 or 0.25 kg/ha of a.s.
(§3) Depending on the species, the plants were kept at 10-25° C. or 20-35° C. . The test period extended over 2 to 4 weeks. During this time, the plants were tended, and their response to the individual treatments was evaluated.
(§4) The evaluation was carried out using a scale from 0 to 100. 100 means no emergence of the plants, or complete destruction of at least the aerial parts, and 0 means no damage, or normal course of growth.
(§5) The plants used in the greenhouse trials were from the following species:
(§6) Herbicidal activity when employed by the post-emergence method (greenhouse) [drawing 20]

[2] = system: Setaria viridis; assay type: in vivo, Setaria viridis (green foxtail)
Excerpt: as §1, §2, §3, §4, §5, §6

[3] = system: Sinapis alba; assay type: in vivo, Sinapis alba (white mustard)
Excerpt: as §1, §2, §3, §4, §5, §6

[4] = system: Solanum nigrum; assay type: in vivo, Solanum nigrum (black nightshade)
Excerpt: as §1, §2, §3, §4, §5, §6

Measured: control of the weed (herbicidal activity)

CC1(C)C(=O)C(C(=O)c2ccc(Cl)c(CC3=NOCC3)c2Cl)=C(O)C(C)(C)C1=O [Compound 37.2, 2,4-Dichloro-3-((4,5-dihydro-3-isoxazolylmethyl)phenyl)(3,3,6,6-tetramethylcyclohexane-1,3,5-trione)methanone]
very efficient control: all assays above

Reference: US6559100B1, “2-benzoyl-cyclohexane-1,3-diones” (BASF Aktiengesellschaft, priority 1997, dated 2003)
